Laboratory results as given in patent US20150258192A1, “COMPOSITIONS AND METHODS FOR PREVENTING OR TREATING CHRONIC LUNG ALLOGRAFT DYSFUNCTION (CLAD) AND IDIOPATHIC PULMONARY FIBROSIS (IPF)” (priority 2014, published 2015).
No end group written: not given here.

Legend:
CK1γ2(h) = CK1γ2(h) (Homo sapiens, UniProt P78368); test: Kinase Profiling Assay; format: biochemical; conditions: peptide 100 μM
Procedure, shortened: (§1)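 Measured twice per kinase, activity in presence of MK2 inhibitory peptide was calculated against a 100% activity control after radiometric phosphorylation of a cationic substrate, anionic filter capture and scintillation counting; one of 266 human kinases profiled for specificity.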

c-RAF(h) = c-RAF(h) (Homo sapiens, UniProt P04049); test: Kinase Profiling Assay; format: biochemical; conditions: peptide 100 μM
Procedure, shortened: as §1

PAK6(h) = PAK6(h) (Homo sapiens, UniProt Q9NQU5); test: Kinase Profiling Assay; format: biochemical; conditions: peptide 100 μM
Chain of PAK6(h) (Q9NQU5 whole entry): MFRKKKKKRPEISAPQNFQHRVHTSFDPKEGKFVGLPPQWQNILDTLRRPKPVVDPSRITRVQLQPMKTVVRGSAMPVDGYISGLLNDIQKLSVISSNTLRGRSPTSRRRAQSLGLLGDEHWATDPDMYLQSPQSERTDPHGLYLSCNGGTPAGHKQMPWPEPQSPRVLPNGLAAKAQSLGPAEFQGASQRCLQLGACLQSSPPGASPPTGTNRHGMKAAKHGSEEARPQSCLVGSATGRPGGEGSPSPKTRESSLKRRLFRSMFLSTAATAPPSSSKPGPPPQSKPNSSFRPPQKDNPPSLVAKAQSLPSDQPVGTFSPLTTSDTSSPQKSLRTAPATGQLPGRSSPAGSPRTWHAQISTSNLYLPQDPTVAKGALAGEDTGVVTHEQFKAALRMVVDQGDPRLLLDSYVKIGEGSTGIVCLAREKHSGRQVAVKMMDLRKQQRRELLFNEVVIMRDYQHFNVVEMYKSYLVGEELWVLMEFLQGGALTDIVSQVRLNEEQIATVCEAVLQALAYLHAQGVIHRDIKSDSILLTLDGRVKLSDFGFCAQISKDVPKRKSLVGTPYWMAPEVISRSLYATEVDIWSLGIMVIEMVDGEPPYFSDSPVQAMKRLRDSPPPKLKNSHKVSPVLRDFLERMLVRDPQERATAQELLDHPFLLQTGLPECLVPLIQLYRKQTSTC
Procedure, shortened: as §1

splenic T cells = test: Autologous mixed lymphocyte reaction (MLR) of splenic T cells from treated bleomycin mice; format: in vivo, mouse
Description: Recent studies highlighted a key role for T lymphocytes in bleomycin-induced fibrosis (Wilson, M. et al., The Journal of Experimental Medicine, 207(3): 535-552, 2010). […] Specifically, the ability of C57BL/6 purified antigen-presenting cells to induce proliferation in C57BL/6 T lymphocytes was examined in the assay.
C57-BL/6 mice were subjected to bleomycin injury at day 0. […] Splenic T cells were isolated and cultured alone or in the presence of autologous antigen presenting cells (APCs from C57-BL/6 mice) or stimulated with antibodies against CD3 (α-CD3) for 48 h. The cells then were radiolabeled with […] thymidine for 16 h and assessed for proliferation rates.
The viability of the T cells also was confirmed by stimulating the cells with antibodies against α-CD3, a polyclonal T cell activator. α-CD3 induced robust proliferation of the cells irrespective of the treatment group.

[1] = test system: primary lung fibroblasts from patients with IPF; test: Matrigel invasion assay, human IPF fibroblasts; format: cell-based; conditions: MK2i treatment
Method: Fibroblasts are critical effector cells in mediating tissue remodeling. […] We have developed a novel model of progressive lung fibrosis based on a cancer metastasis model. […] We hypothesized that fibrotic fibroblasts acquire an invasive phenotype that is essential for progressive fibrogenesis and that CD44 has a critical role in regulating the process. We utilized an assay system in which fibroblasts are evaluated for their ability to spontaneously invade Matrigel, a composite matrix with basement membrane constituents. This assay has been used to analyze the metastatic potential of cancer cells (40).
We have hypothesized that the essential feature of IPF is the development of an invasive fibroblast phenotype that has developed a gene program that facilitates matrix invasion. To determine if the data obtained from the ASMA-HAS2 transgenic mouse model of severe, progressive and destructive fibrosis is relevant to human lung fibrosis, we isolated primary lung fibroblasts from patients with IPF and analyzed their invasive capacity. We found a striking increase in the invasive capacity of IPF fibroblasts compared to fibroblasts isolated from normal lung tissue (FIG. 34).

[2] = test system: bleomycin-induced lung fibrosis in C57BL/6 mice; test: Bleomycin mouse model of pulmonary fibrosis (IPF treatment model); format: in vivo; conditions: for lung architecture and collagen distribution (H&E, Masson's trichrome), day 28: daily day 14-28 post bleomycin
Method: A mouse model of pulmonary fibrosis was generated by administering 0.025 U of bleomycin/PBS intratracheally to C57BL/6 mice. […] At 21 day post bleomycin delivery (for prevention model) or 28 post bleomycin delivery (for treatment model), groups of mice were sacrificed with a sodium pentobarbital injection (120 mg/kg) and the chest cavity was opened. The right mainstem bronchus was ligated and the right lung was removed. The trachea was cannulated and the left lung was perfused with 4% formaldehyde at 21 cm H2O pressure. The tissue blocks then were embedded in paraffin, and […] sections were prepared for staining. Sections from each animal were stained with hematoxylin and eosin (H&E) to visualize cells or with Masson's Trichrome staining to highlight collagen deposition. […] Stained sections were mounted onto a labeled glass slide with organic mounting medium.
The classic bleomycin model, as depicted in FIG. 10, has been used widely in the literature in the pre-fibrotic stage to test efficacy of any intervention.
More specifically, fibrotic loci in the lungs were induced by delivering intratracheally about 0.025 U of bleomycin (dissolved in PBS) to C57BL/6 mice. […] Mice were sacrificed with a sodium pentobarbital injection (120 mg/kg) and the chest cavity was opened. The right mainstem bronchus was ligated and the right lung is removed. The trachea was cannulated and the left lung was perfused with 4% formaldehyde at 21 cm H2O pressure. The tissue blocks then were embedded in paraffin, and […] sections were prepared, and stained with hematoxylin and eosin (H&E; for pathological examination) or Masson's Trichrome (for collagen staining)
Next, collagen deposition was determined quantitatively by using the standard hydroxyproline assay with whole left lung. Total collagen (soluble and insoluble) deposition was assessed by analyzing hydroxyproline concentrations in murine lungs day 28 post bleomycin injury.

[3] = test system: fibroblasts from human idiopathic pulmonary fibrosis (IPF) lung; test: HA production of fibroblasts; format: cell-based
[4] = target: T1, human recombinant MK2 (h) (Homo sapiens, UniProt P49137); test: Radiometric IC50 Determination; format: biochemical; conditions: 10-point curve; ATP within 15 μM of apparent Km
T1 construct: purchased Millipore (IC50 Profiler Express service)
T1 sequence (P49137 whole entry): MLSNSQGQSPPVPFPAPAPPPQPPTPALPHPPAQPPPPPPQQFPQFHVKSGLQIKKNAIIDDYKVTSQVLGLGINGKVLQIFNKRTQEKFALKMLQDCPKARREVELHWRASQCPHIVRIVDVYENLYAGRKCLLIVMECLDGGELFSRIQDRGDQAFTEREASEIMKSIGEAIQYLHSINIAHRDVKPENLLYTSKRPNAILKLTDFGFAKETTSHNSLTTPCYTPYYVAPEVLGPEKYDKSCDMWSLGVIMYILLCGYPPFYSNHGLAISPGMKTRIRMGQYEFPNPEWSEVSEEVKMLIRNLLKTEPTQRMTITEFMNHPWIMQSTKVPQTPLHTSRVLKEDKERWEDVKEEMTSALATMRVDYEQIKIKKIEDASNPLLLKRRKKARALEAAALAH
Method: The IC50 value was estimated from a 10-point curve of one-half log dilutions. Peptide was supplied in dimethyl sulfoxide (DMSO). Specifically, human recombinant MK2 (h) (5-10 mU) was incubated with 50 mM sodium 3-glycerophosphate (pH=7.5), 0.1 mM EGTA, 30 μM of substrate peptide ([…]; SEQ ID NO: 21), 10 mM magnesium acetate, and 90 uM γ-^33P-ATP (final volume of 25 μL) for 40 minutes at room temperature. Then, the reaction was stopped with 3% phosphoric acid. 10 μL of this mixture was spotted onto a P30 filtermat and washed three times for five minutes with 75 mM phosphoric acid and once with methanol. Finally, the membrane was dried and a scintillation counter was used.
Specifically, in these assays, a positively charged substrate is phosphorylated with a radiolabeled phosphate group from an ATP if the kinase is not inhibited by an inhibitor peptide. The positively charged substrate then is attracted to a negatively charged filter membrane, quantified with a scintillation counter, and compared to a 100% activity control.

IL-6 = test: Circulating inflammatory cytokines, bleomycin treatment model; format: in vivo, mouse; conditions: 24 hours after final administration
FGFR2(N549H)(h) = FGFR2(N549H)(h) (Homo sapiens, UniProt P21802, N549H); test: Kinase Profiling Assay; format: biochemical; conditions: peptide 100 μM
Chain of FGFR2(N549H)(h) (P21802 22-821 N549H): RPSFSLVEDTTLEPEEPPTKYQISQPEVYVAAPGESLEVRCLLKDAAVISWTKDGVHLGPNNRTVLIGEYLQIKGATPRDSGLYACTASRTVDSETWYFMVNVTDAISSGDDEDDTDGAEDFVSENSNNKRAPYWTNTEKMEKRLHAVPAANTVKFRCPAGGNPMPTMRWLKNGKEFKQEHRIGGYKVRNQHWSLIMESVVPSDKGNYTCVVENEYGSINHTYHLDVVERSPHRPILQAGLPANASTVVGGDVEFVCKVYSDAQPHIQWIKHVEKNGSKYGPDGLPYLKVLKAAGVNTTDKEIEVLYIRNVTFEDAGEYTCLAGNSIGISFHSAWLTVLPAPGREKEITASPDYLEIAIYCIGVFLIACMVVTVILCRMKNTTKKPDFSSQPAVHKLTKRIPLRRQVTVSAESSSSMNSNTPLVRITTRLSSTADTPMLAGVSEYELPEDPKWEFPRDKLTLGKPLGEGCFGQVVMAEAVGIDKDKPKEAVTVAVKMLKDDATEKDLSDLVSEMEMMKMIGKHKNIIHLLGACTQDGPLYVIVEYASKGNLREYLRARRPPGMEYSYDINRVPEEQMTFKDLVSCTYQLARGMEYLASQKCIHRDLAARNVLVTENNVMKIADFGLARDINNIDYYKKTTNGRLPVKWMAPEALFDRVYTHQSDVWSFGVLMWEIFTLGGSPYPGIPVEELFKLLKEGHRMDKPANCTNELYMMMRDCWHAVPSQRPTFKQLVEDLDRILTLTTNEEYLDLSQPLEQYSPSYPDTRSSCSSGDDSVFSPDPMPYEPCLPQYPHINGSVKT
Procedure, shortened: as §1

CK1γ1(h) = CK1γ1(h) (Homo sapiens, UniProt Q9HCP0); test: Kinase Profiling Assay; format: biochemical; conditions: peptide 100 μM
Chain of CK1γ1(h) (Q9HCP0 whole entry): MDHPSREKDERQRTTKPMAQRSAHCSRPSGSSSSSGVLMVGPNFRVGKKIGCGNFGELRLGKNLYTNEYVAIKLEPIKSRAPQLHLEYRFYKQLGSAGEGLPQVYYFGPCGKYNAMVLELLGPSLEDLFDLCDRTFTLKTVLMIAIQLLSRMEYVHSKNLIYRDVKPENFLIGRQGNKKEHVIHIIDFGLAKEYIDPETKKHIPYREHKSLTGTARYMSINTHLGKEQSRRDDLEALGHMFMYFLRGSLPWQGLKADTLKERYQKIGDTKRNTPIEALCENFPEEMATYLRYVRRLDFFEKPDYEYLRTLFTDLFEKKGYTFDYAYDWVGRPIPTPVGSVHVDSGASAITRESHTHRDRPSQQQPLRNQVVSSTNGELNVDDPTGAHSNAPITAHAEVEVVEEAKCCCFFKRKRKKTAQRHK
Procedure, shortened: as §1

CLK2(h) = CLK2(h) (Homo sapiens, UniProt P49760); test: Kinase Profiling Assay; format: biochemical; conditions: peptide 100 μM
Chain of CLK2(h) (P49760 whole entry): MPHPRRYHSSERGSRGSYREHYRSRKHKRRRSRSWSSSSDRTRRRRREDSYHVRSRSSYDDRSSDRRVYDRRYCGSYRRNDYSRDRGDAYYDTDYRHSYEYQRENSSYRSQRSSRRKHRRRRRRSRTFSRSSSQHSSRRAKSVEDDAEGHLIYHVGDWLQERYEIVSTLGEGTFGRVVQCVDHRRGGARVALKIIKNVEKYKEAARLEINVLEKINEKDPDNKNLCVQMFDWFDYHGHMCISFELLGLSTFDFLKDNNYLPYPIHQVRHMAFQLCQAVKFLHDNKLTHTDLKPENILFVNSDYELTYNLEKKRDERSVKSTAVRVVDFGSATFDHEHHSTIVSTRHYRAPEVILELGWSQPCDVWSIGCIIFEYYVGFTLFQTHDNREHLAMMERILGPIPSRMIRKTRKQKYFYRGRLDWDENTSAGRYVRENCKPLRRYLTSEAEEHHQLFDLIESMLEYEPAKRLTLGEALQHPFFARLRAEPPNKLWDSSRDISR
Procedure, shortened: as §1

Plk1(h) = Plk1(h) (Homo sapiens, UniProt P53350); test: Kinase Profiling Assay; format: biochemical; conditions: peptide 100 μM
Chain of Plk1(h) (P53350 whole entry): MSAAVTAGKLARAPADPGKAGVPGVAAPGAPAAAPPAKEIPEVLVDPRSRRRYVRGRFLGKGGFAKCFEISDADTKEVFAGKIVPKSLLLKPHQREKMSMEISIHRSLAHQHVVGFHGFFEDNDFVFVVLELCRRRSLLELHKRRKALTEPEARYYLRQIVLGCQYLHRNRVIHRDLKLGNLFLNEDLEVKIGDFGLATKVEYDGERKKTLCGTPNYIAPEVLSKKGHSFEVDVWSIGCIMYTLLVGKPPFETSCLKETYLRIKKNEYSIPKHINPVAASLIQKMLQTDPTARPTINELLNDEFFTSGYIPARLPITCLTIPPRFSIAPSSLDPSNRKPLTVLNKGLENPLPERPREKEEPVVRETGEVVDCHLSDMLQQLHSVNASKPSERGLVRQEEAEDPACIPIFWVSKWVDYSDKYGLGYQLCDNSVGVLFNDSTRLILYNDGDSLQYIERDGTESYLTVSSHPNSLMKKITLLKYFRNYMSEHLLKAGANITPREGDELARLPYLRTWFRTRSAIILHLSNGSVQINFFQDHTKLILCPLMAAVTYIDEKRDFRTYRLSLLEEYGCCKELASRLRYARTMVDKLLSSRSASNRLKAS
Procedure, shortened: as §1

Chain of CK1γ2(h) (P78368 whole entry): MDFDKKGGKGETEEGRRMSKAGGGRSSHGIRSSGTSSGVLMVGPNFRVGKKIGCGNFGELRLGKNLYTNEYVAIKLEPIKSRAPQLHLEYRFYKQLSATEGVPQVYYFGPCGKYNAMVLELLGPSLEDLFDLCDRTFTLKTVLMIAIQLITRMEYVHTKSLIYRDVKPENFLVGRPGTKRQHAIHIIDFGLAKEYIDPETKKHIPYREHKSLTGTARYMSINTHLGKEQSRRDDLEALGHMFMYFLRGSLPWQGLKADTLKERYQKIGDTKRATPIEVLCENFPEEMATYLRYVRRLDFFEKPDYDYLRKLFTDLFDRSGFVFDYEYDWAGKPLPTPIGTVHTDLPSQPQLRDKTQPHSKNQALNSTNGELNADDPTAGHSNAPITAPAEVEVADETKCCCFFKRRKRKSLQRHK

FAKLAARLYRKALARQLGVAA [MMI-0300]
% activity (CK1γ2(h)): 123%

HRRIKAWLKKIKALARQLGVAA (Mammal) [MMI-0500]
% activity (c-RAF(h)): 19%

KAFAKLAARLYRKALARQLGVAA [MMI-0400]
% activity (PAK6(h)): 100%

YARAAARQARAKALARQLGVAA [MMI-0100]
toxicity (splenic T cell response to α-CD3) (splenic T cells; 50 μg/kg/day): no toxicity | systemic distribution (splenic T cells; nebulized delivery, inferred from lack of splenic T cell response): little systemic distribution | invasive capacity of IPF fibroblasts [1]: able to inhibit | progression of collagen deposition (hydroxyproline assay, whole left lung), day 28 ([2]; 50 μg/kg/day IP or nebulizer from day 14): significantly arrested further progression | lung architecture and collagen distribution (H&E, Masson's trichrome), day 28 ([2]; intraperitoneally): rescued | lung architecture and collagen distribution (H&E, Masson's trichrome), day 28 ([2]; locally applied to the lung (nebulized)): rescued | HA production [3]: reduced | IC50 [4]: 22 µM | plasma level of IL-6 (IL-6; intraperitoneal): significantly reduced | plasma level of IL-6 (IL-6; nebulized): significantly reduced | % activity (FGFR2(N549H)(h)): 95%

YARAAARQARAKALNRQLGVA (Mammal) [MMI-0200]
% activity (CK1γ1(h)): 98% | % activity (CLK2(h)): 97% | % activity (Plk1(h)): 128%
